# According to ChEMBL document CHEMBL4385664, “Targeting TRAIL” (Bioorg Med Chem Lett, 2019):
# Assay: Activation of TRAIL receptor in human T98G cells assessed as reduction in cel viability by Cell-titer-Glo luminescent cell viability assay
# Type: cell-based
row,Structure (SMILES),IC50 [µM]
1,N=C1S/C(=C\c2ccc(-c3ccc4c(c3)C(=O)NC4=O)o2)C(=O)N1c1ccc(Br)cc1,2
2,COc1ccc(N2C(=N)S/C(=C\c3ccc(-c4ccc5c(c4)C(=O)N(Cc4ccccc4)C5=O)o3)C2=O)cc1,> 30
3,N=C1S/C(=C\c2ccc(-c3ccc4c(c3)C(=O)NC4=O)o2)C(=O)N1c1ccccc1,> 30
4,COc1ccc(N2C(=N)S/C(=C\c3ccc(-c4ccc5c(c4)C(=O)NC5=O)o3)C2=O)cc1,> 30
5,Cc1ccc(N2C(=N)S/C(=C\c3ccc(-c4ccc5c(c4)C(=O)NC5=O)o3)C2=O)cc1,> 30
6,COc1ccc(N2C(=N)S/C(=C\c3ccc(-c4ccc5c(c4)C(=O)N(C)C5=O)o3)C2=O)cc1,> 30
7,COc1ccc(N2C(=N)S/C(=C\c3ccc(-c4ccccc4)o3)C2=O)cc1,> 30
8,N=C1S/C(=C\c2ccc(-c3ccc4c(c3)C(=O)NC4=O)o2)C(=O)N1c1ccccn1,> 30
9,Cc1csc(N2C(=N)S/C(=C\c3ccc(-c4ccc5c(c4)C(=O)NC5=O)o3)C2=O)n1,> 30
10,CN(C)c1ccc(N2C(=N)S/C(=C\c3ccc(-c4ccc5c(c4)C(=O)NC5=O)o3)C2=O)cc1,> 30
11,COc1ccc(N2C(=N)S/C(=C\c3ccc(-c4ccc5c(c4)C(=O)NC5=O)s3)C2=O)cc1,10
12,N=C1S/C(=C\c2ccc(-c3ccc4c(c3)C(=O)NC4=O)o2)C(=O)N1c1ccc(Cl)cc1,25
13,COc1ccc(N2C(=N)S/C(=C\c3ccc(-c4cccnc4)o3)C2=O)cc1,25
14,N=C1S/C(=C\c2ccc(-c3ccc4c(c3)C(=O)NC4=O)o2)C(=O)N1c1ccc(F)cc1,20
15,COc1cccc(N2C(=N)S/C(=C\c3ccc(-c4ccc5c(c4)C(=O)NC5=O)o3)C2=O)c1,10
16,COc1ccc(N2C(=N)S/C(=C\c3ccc(-c4ccncc4)o3)C2=O)cc1,20
17,CN1C(=N)S/C(=C\c2ccc(-c3ccc4c(c3)C(=O)NC4=O)o2)C1=O,> 30
18,COc1ccc(N2C(=N)S/C(=C\c3ccc(-c4cncnc4)o3)C2=O)cc1,> 30
19,COc1ccc(N2C(=O)S/C(=C\c3ccc(-c4ccc5c(c4)C(=O)NC5=O)o3)C2=O)cc1,> 30
20,N=C1S/C(=C\c2ccc(-c3ccc4c(c3)C(=O)NC4=O)o2)C(=O)N1c1ccc(C(F)(F)F)cc1,> 30
21,C=CCN1C(=N)S/C(=C\c2ccc(-c3ccc4c(c3)C(=O)NC4=O)o2)C1=O,> 30
22,N=C1S/C(=C\c2ccc(-c3ccc4c(c3)C(=O)NC4=O)o2)C(=O)N1c1ncc[nH]1,20
23,COc1ccc(N2C(=N)S/C(=C\c3ccc(-c4ccc(OC)c(F)c4)o3)C2=O)cc1,20
24,COc1ccc(/C=C2\SC(=N)N(c3ccc(OC)cc3)C2=O)cc1,> 30
